# Experimental data from patent US9422262B2, “Compounds and methods for treating diseases mediated by protease activated receptors” (The Broad Institute, Inc., priority 2010, dated 2016).
# Target: T1, Par1 (thrombin) receptor (Homo sapiens, UniProt P25116)
# T1 construct: endogenous in cells; host or cells: platelets (platelet-rich plasma; washed platelets from individual donors)
# T1 sequence (P25116 22-425): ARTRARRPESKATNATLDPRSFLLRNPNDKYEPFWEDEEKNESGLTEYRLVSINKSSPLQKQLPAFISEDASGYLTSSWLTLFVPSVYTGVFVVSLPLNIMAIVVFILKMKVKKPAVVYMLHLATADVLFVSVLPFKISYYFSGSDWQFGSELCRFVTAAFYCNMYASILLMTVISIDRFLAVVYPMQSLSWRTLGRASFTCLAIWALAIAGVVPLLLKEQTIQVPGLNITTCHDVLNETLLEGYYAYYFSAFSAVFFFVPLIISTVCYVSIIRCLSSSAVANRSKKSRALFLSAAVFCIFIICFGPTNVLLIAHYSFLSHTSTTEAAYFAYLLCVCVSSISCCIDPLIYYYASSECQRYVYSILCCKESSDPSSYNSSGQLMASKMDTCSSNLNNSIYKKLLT
# Experiment: SFLLRN-mediated granule secretion, platelet-rich plasma, luciferin-luciferase ATP readout (primary assay)
# Format: cell-based
# Conditions: Table D; read-out: Activity (measured IC50 category)
# Procedure: The compounds were tested in two independent IC50 determination experiments using the primary assay measuring SFLLRN-mediated granule secretion. For this assay, platelet-rich plasma is treated with putative inhibitors prior to activation by the SFLLRN peptide, which targets the Par1 (thrombin) receptor. Upon activation, platelets secrete dense granules, which are concentrated with ATP. Platelet activation and possible inhibition are monitored by a luciferin-luciferase assay (CellTiter-Glo without lysis reagent) to measure the ATP secreted from activated platelets. Luminescence measurements are made using a plate reader (Envision, PerkinElmer) capable of detecting luminescence.
row,SMILES,IC50 [µM]
1,CC(=O)Nc1cccc(NC(=O)c2ccccc2Cl)c1,> 10
2,CC(=O)Nc1ccc(NC(=O)c2ccccc2Br)cc1,> 10
3,CCCC(=O)Nc1cccc(NC(=O)c2ccc(C(F)(F)F)cc2)c1,> 10
4,CCCC(=O)Nc1cccc(NC(=O)c2ccc(OC)cc2)c1,> 10
5,CCCC(=O)Nc1cccc(NC(=O)c2ccc(S(C)(=O)=O)cc2)c1,> 10
6,CCCC(=O)Nc1cccc(NC(=O)c2cccnc2)c1,> 10
7,CCCC(=O)Nc1cccc(NC(=O)c2cnc3ccccc3c2)c1,> 10
8,CCCC(=O)Nc1cccc(NC(=O)c2ccco2)c1,> 10
9,CCCC(=O)Nc1cccc(NC(=O)c2ccc(C)cc2)c1,> 10
10,CCCC(=O)Nc1cccc(NC(=O)c2cccc(S(C)(=O)=O)c2)c1,> 10
11,O=C(Nc1cccc(NC(=O)c2ccccc2Br)c1)c1ccccc1,> 10
12,CCCC(=O)Nc1ccnc(NC(=O)c2ccccc2Br)c1,> 10
13,O=C(Nc1cc(NC(=O)C2CCCC2)ccn1)c1ccccc1Br,> 10
14,O=C(Nc1ccnc(NC(=O)c2ccccc2Br)c1)c1ccccc1,> 10
15,CCCC(=O)Nc1cccc(N(C)C(=O)c2ccccc2Br)c1,> 10
16,CN(C(=O)c1ccccc1Br)c1cccc(NC(=O)C2CCCC2)c1,> 10

row,SMILES,IC50 [µM]
1,CCCC(=O)Nc1ccc(NC(=O)c2ccccc2Br)cc1,> 10
2,CCCC(=O)Nc1cccc(NC(=O)c2ccccc2C(=O)N(C)C)c1,> 10
3,CCCC(=O)Nc1cccc(NC(=O)c2ccccc2-c2ccccc2)c1,> 10
4,CCCC(=O)Nc1cccc(NC(=O)c2c(C)cccc2C)c1,1 to 5
5,CCCC(=O)N(C)c1cccc(NC(=O)c2ccccc2Br)c1,> 10
6,CCOC(=O)Nc1cccc(NC(=O)c2ccccc2Br)c1,1 to 5
7,Cc1ccccc1C(=O)Nc1cccc(NC(=O)CC(C)C)c1,1 to 5
8,CCCC(=O)Nc1ccc(Cl)c(NC(=O)c2ccccc2C)c1,> 10
9,CCCC(=O)Nc1ccc(Cl)c(NC(=O)c2ccccc2Br)c1,> 10
10,CCC(=O)Nc1cc(NC(=O)c2ccccc2C)ccc1C,> 10
11,CCCNC(=O)c1cccc(NC(=O)c2ccccc2Cl)c1,1 to 5
12,CCCC(=O)Nc1cccc(NCc2ccccc2Br)c1,> 10
13,CCCC(=O)Nc1cccc(NC(=O)c2ccccc2S(C)(=O)=O)c1,> 10
14,CCC(C)(C)C(=O)Nc1cccc(NC(=O)c2ccccc2Br)c1,> 10
15,CCCC(=O)Nc1cccc(NC(=O)c2cccc(Cl)c2Cl)c1,1 to 5
16,CCCC(=O)Nc1cccc(NC(=O)c2c(Cl)cccc2Br)c1,1 to 5

# The next lines start with the values.
row,IC50 [µM],SMILES
1,1 to 5,CCC(=O)Nc1cccc(NC(=O)c2ccccc2Br)c1
2,1 to 5,O=C(Nc1ccccc1)c1ccccc1Br
3,0.001 to 1,CCCC(=O)Nc1cccc(NC(=O)c2ccccc2C)c1
4,0.001 to 1,CCCC(=O)Nc1cccc(NC(=O)c2ccccc2F)c1
5,1 to 5,CCCC(=O)Nc1cccc(NC(=O)c2ccccc2Cl)c1
6,0.001 to 1,O=C(Nc1cccc(NC(=O)C2CCCC2)c1)c1ccccc1Br
7,1 to 5,CCCC(=O)Nc1cccc(NC(=O)c2ccccc2C(F)(F)F)c1
8,0.001 to 1,CCCC(=O)Nc1cccc(NC(=O)c2ccccc2OC(F)(F)F)c1
9,0.001 to 1,CCCC(=O)Nc1cccc(NC(=O)c2ccccc2CC)c1
10,0.001 to 1,CCCCNc1cccc(NC(=O)c2ccccc2Br)c1
11,0.001 to 1,CCCC(=O)Nc1cccc(NC(=O)c2cc(C)ccc2Br)c1
12,0.001 to 1,CCCC(=O)Nc1cccc(NC(=O)c2ccc(F)cc2Br)c1
13,0.001 to 1,CCCC(=O)Nc1cccc(NC(=O)c2cc(F)ccc2Br)c1
14,0.001 to 1,CCCC(=O)Nc1cccc(NC(=O)c2cc(Cl)ccc2Br)c1
15,0.001 to 1,CCCC(=O)Nc1cccc(NC(=O)c2ccccc2Br)c1 [drawing 135]
16,0.001 to 1,CC(C)CC(=O)Nc1cccc(NC(=O)c2ccccc2Br)c1 [drawing 174]

# Tested on: Gα12 signaling downstream of PAR1
# Experiment: PAR1-mediated transmembrane resistance (TER) in MDCK cells overexpressing Gα12
# Format: cell-based
# Conditions: FIG. 3B
# Description: (§1) This pattern of inhibition is consistent with that of an allosteric inhibitor. […] This observation raised the possibility that compound 1 blocks PAR1 signaling through Gαq (which mediates platelet aggregation downstream of PAR1), but not Gα12/13 (which mediates shape change downstream of PAR1). A previously identified PAR1 inhibitor, 3,5-difluoro aminoisoxazole (3,5-DFAI), inhibited both shape change and aggregation. Shape change that occurred in the presence of compound 1 was blocked by the Rho kinase inhibitor Y27632, confirming participation of Rho kinase downstream of Gα12/13 in compound-1-resistance shape change (FIG. 3A). […] PAR1-mediated decrease in TER in these cells is dependent on Gα12. […] In contrast, 3,5-DFAI inhibited SFLLRN-mediated decrease in TER (FIG. 3B) and compound 1 inhibited Gαq-mediated Ca^2+ flux in these MDCK cells (FIG. 3C).
row,SMILES,PAR1-mediated (SFLLRN) change in TER
1,"Nc1c(F)noc1F [3,5-DFAI, 3,5-difluoro aminoisoxazole]",inhibited

# Tested on: thrombus formation
# Experiment: Thrombus formation following laser-induced injury of the cremaster arteriole in mice
# Format: in vivo
# Conditions: single infusion of 5 mg/kg, FIG. 5A
# Description: PAR1 is the thrombin receptor on human platelets and serves an important function in mediating thrombus formation. We tested compound 1 to determine whether it inhibited thrombus formation following laser-induced injury of the cremaster arteriole in mice. The dominant PAR receptor on mouse platelets is PAR4. However, since compound 1 acts at a non-orthosteric site and mouse PAR4 differs from human PAR4, we reasoned that compound 1 may be able to block mouse PAR4. […] When infused into mice at a concentration of 5 mg/kg, compound 1 inhibited platelet accumulation during thrombus formation by >90% (FIG. 4B). Infusion of 5 mg/kg also impaired fibrin generation during thrombus formation (FIG. 4C). Thus, compound 1 blocks both cellular- and coagulation protein-mediated arms of thrombus formation. […] The compound was therefore infused every 30 minutes during the course of these experiments. The short half-life of compound 1 in vivo may be useful in scenarios in which anticoagulation is only required for a short period of time or when anticoagulation needs to be reversed quickly, such as anticoagulation prior to invasive procedures or surgery.
# (§2) Since there are also situations in which longer term anticoagulation is desired, we performed further studies in the thrombus formation model to assess analogs of compound 1 that may have a more long-lived effect. […] This instability in mouse plasma may have contributed to its short half-life of efficacy in vivo.
row,SMILES,impairment of platelet accumulation during thrombus formation [%]
1,CC(C)CC(=O)Nc1cccc(NC(=O)c2ccccc2Br)c1 [2-bromo-N-(3-(3-methylbutanamido)phenyl)benzamide],> 90

# Same assay, conditions: single infusion of 5 mg/kg, FIG. 5B
row,SMILES,impairment of fibrin generation during thrombus formation [%]
1,CC(C)CC(=O)Nc1cccc(NC(=O)c2ccccc2Br)c1 [2-bromo-N-(3-(3-methylbutanamido)phenyl)benzamide],> 90

# Tested on: not listed separately
# Experiment: Stability in mouse plasma
# Format: in vitro ADME
# Conditions: not given
# Description: as §2
row,remaining after 5 hour incubation in mouse plasma [%],SMILES
1,64.6,CC(C)CC(=O)Nc1cccc(NC(=O)c2ccccc2Br)c1 [2-bromo-N-(3-(3-methylbutanamido)phenyl)benzamide]

# Target: T2, PAR1 (Homo sapiens, UniProt P25116)
# T2 sequence (P25116 22-425): T1 sequence (P25116 22-425)
# Experiment: PAR1-mediated platelet aggregation and shape change
# Format: cell-based
# Parameters: endogenous in cells; host or cells: platelets (platelet-rich plasma; washed platelets from individual donors)
# Conditions: FIG. 3A
# Description: as §1
PAR1-mediated platelet aggregation,PAR1-mediated platelet shape change,SMILES
inhibited,inhibited,"Nc1c(F)noc1F [3,5-DFAI, 3,5-difluoro aminoisoxazole]"

# Same assay, conditions: in the presence of compound 1; FIG. 3A
row,shape change that occurred in the presence of compound 1,SMILES
1,blocked,C[C@@H](N)[C@H]1CC[C@H](C(=O)Nc2ccncc2)CC1 [Compound Y27632]
